The source of these data is article PMC6110851, “An Optimized MicroPET Imaging Method for the Distribution and Synergies of Natural Products” (Frontiers in Pharmacology, 2018).

One data set has as its system NF-κB. Kind of data set: NF-κB dual luciferase reporter assay in TNF-stimulated HEK 293 T cells. Format: cell-based. The following applies: 10 μmol/L, HEK 293T stimulated by TNF-α, P < 0.05. The protocol: The separation process was repeated five times for use in the activity tests. […] After 48 h, radioactive elements had decayed, the residues were stored at 4°C for anti-inflammatory activity tests ([Dong et al., 2013]; [Qingxin et al., 2016]).
HEK 293 T cells were cultured in standard Dulbecco’s modified Eagle’s medium (DMEM; Hyclone) supplemented with 10% fetal bovine serum (FBS; Biological Industries). The cells were placed in 96-well plates at 37°C in an air-CO2 environment (95/5% v/v). Cells were grown to 80–90% confluence and incubated for 12 h in DMEM without FBS. Transfection (20 h) was performed according to the manufacturer’s instructions. HEK 293 T cells were pretreated with drugs 1 h prior to TNF-stimulation (5 ng/mL) for 6 h. Dex (10^-5mol/L) was used as a positive control for NF-κB inhibition. The NF-κB activity was assayed using dual luciferase reporter assay system (Promega) according to the manufacturer’s instructions ([Qingxin et al., 2016]). Antiinflammatory activity was calculated as the ratio of firefly luciferase activity to Renilla luciferase activity (internal control).
(In a reporter assay the amount or activity of a reporter protein is the signal.)

Data set [1] is described as follows: MicroPET biodistribution of [^18F]-GA in mice. Format: in vivo. The protocol: The mice were grouped by weight and housed in cages of the climate control room (25°C), with a photoperiod 12:12-h. During feeding, mice were free to access food and water. Mice were fasted for 24 h before the experiment. The mice were anesthetized with 4% isoflurane while preparing for scanning ([Constantinescu et al., 2013b]; [Cui et al., 2017]). Eighteen healthy male Kunming mice, weighing 20 ± 2 g, were divided into three groups, which were control group, once-administered (OA) group and long-term administration (LA) group. In the OA group, 1 h before the administration of [^18F]-GA, the mice were orally treated with PG polysaccharides. In the LA group, the mice were orally given the PG polysaccharides for 7 days, but not before the administration of [^18F]-GA.
Rice received a tail vein injection (8.67 ± 2.14 MBq/μg) of [^18F]-GA and placed in the scanner bed and mouse-imaging room immediately ([Constantinescu et al., 2013b]; [O’Doherty et al., 2017]). Firstly, 2 h PET scanning was performed using an Inveon-dedicated PET scanner. The average delay between injection and starting of PET scanning was 3.5 min. Rice were maintained stable under 4% isoflurane anesthesia throughout scanning. The PET list-mode data were dynamically classified into 23 3D sinograms of span and three ring difference. After Fourier recombination, the data were reconstructed using a 2D ordered-subset expectation maximization algorithm. Random events were excluded before reconstruction. The response of detector is normalized using a component-based approach. All dynamic images were corrected for radioactive decay automatically. The PET images were reconstructed by a cone beam algorithm into 480 × 480 × 632 image arrays. After the reconstruction, images were spatially transformed to match the PET images ([Constantinescu et al., 2013a],[b]).
The reconstruction of the image was performed using the PMOD software (PMOD Technologies). The 3D volumes of interest (VOIs) were drawn manually of the following organs: brain, heart, liver, lungs, kidneys, cortical bone, and gallbladder. The organs were carefully identified and VOIs were drawn as irregular contours on high-resolution PET images obtained from each mouse ([Constantinescu et al., 2013b]; [Garg et al., 2017]). The size of each VOI was less than the actual size of each organ to minimize the effects of PET on adjacent organ spills. The VOIs drawing was verified by a second operator. The VOIs of cortical bone were generated by first using PET image to depict the entire femur bone ([Constantinescu et al., 2013b]). The VOI was transferred to a dynamic PET image and the mean time-activity curve (TAC) of the decay correction was extracted for each target organ ([Constantinescu et al., 2013b]).

As for `C[C@@H]1C[C@H]2[C@@H]3CCC4=CC(=O)C=C[C@]4(C)[C@@]3(F)[C@@H](O)C[C@]2(C)[C@@]1(O)C(=O)CO` [Dex, reference compound], the NF-κB inhibitory effect result with NF-κB is “significant NF-κB inhibitory effects”.

As for `CC1(C)[C@@H](O)CC[C@]2(C)[C@H]3C(=O)C=C4[C@@H]5C[C@@](C)(C(=O)O)CC[C@]5(C)CC[C@@]4(C)[C@]3(C)CC[C@@H]12` [GA, Glycyrrhetic acid, reference compound], the “passage of the blood brain barrier” value in data set [1] (mice, concluded from brain concentrations) was “could not pass the blood brain barrier”. For the same compound, the “concentration in the brain of the mouse” value in data set [1] (results obtained from PET) is listed as “very low, almost undetectable”.
